One series can be described thus: LD50 value, oral, mice. Conditions: mouse, in vivo, p.o., ten mice per group. An excerpt:
LD50 value Ten mice were used for each group. LD50 value was estimated with the dose (mg/kg, p.o.) which induced death in 50% of mice.

The subject of another series is mice. Description: General symptoms in mice (salivation, lachrymation, hypothermia). The class given is in vivo. The settings on record: 100 mg/kg orally; observed for 4 hours. On the set-up: key: +++: marked; ++: moderate; +: mild; non-detected. The method, then: Four mice were used for each group. Mice were placed in stainless steel cages (13×18×25 cm) and after a 1-hr habituation period the compounds were administered. […] Peripheral and central effects of the compounds were estimated with the incidences of salivation and lachrymation, and a grade of hypothermia, respectively.
The compounds which were soluble in saline were dissolved in saline and the others were suspended in 5% arabic gum solution. Each compound was administered orally (100 mg/kg).
Scorings of the symptoms were made as follows.

A further series has as its target T1, Acetylcholinesterase (Rattus norvegicus, UniProt P37136).
T1 construct: the S1 fraction of a male Wistar rat cerebral cortex homogenate was used as a cholinesterase source; from tissue; host or cells: male Wistar rat cerebral cortex homogenate, S1 fraction
Put plainly: Acetylcholinesterase inhibiting activity using (acetyl-[3H])-acetylcholine, S1 fraction of rat cerebral cortex homogenate. Type of series: biochemical, male Wistar rat. The method, then:
The compounds according to the invention were examined for cholinesterase inhibiting activity using (acetyl-[^3 H])-acetylcholine. Thus, the S1 fraction of a male Wistar rat cerebral cortex homogenate was used as a cholinesterase source, and (acetyl-[^3 H])-acetylcholine (as substrate) and each test compound according to the invention were added and, after 30 minutes of incubation, the reaction was terminated. A toluene type scintillator was added, and the mixture was shaken, whereby the reaction product [^3 H]-acetic acid was transferred to the toluene layer. The cholinesterase activity was determined by counting said [^3 H]-acetic acid with a liquid scintillation counter.
The cholinesterase inhibiting activity of each test compound was expressed in terms of 50% inhibitory concentration (IC50).

The test system of series [1] is CO2-induced ammesia in mice. Description: Nootropic action: effect on CO2-induced amnesia in mice (passive avoidance response). The class given is in vivo, mice (male ICR). Conditions: i.p., 30 min before the test, saline = 100, ** p < 0.01. As for the experimental part:
Effect of the compounds (I) and (II) on impairment of passive avoidance response, induced by exposing mice to 100% CO2 gas, was evaluated. Male ICR mice (Japan Clea) aged 5 weeks were used. The experimental apparatus consisted of two compartments, and one illuminated chamber (9×9×25 cm) was connected to dark chamber (25×25×30 cm) with a guillotine door. Each mouse was placed in the illuminated compartment and then allowed to enter the dark one. When the mouse entered the dark chamber, the door was closed and AC 0.5 mA footshock was applied to the floor grid of the dark chamber. The mouse can memorize the experience receiving the uncomfortable stimulus for a few weeks. Next, the consolidation processes of memory were disturbed by an experimental manipulation: Each mouse was placed under the hypoxic condition by being placed into a 4l desiccator filled with 100% CO2 gas, immediately after receiving the footshock in the dark chamber. When his respiratory function was stopped, the mouse was taken out from the desiccator and given artificial respiration till recovering spontaneous respiration. This procedure disturbed the consolidation of the memory (experience of footshock). On the next day, a retention test was performed whether the mouse memorizes the footshock or not. In the test, the mouse was again placed in the illuminated compartment and the latency to enter the dark compartment was measured.
The mice subjected to hypoxia entered the dark compartment with short latency, 10-20 sec. […] The ameliorating effect of compounds on the amnesia induced by hypoxia was evaluated by the latency time, and was expressed as the percent change of the mean time of the vehicle-treated control group (Table 5.). The compounds were suspended in 5% arabic gum solution, and administered intraperitoneally (i.p.) 30 min. before the test.

The mark [2] stands for this setting: rat cerebral cortex homogenate S1 fraction, 30 minutes of incubation, read-out: Acetylcholinesterase inhibiting activity IC50.

Data on 31 compounds can be found in patent US5025033A, “Alkylene diamines” (Takeda Chemical Industries, Ltd., priority 1988, dated 1991).

Structures are written as SMILES. Counter-ions that a name gives are not always drawn. Like-named read-outs stand apart in the source and are kept apart here.

T1 sequence (P37136 32-614): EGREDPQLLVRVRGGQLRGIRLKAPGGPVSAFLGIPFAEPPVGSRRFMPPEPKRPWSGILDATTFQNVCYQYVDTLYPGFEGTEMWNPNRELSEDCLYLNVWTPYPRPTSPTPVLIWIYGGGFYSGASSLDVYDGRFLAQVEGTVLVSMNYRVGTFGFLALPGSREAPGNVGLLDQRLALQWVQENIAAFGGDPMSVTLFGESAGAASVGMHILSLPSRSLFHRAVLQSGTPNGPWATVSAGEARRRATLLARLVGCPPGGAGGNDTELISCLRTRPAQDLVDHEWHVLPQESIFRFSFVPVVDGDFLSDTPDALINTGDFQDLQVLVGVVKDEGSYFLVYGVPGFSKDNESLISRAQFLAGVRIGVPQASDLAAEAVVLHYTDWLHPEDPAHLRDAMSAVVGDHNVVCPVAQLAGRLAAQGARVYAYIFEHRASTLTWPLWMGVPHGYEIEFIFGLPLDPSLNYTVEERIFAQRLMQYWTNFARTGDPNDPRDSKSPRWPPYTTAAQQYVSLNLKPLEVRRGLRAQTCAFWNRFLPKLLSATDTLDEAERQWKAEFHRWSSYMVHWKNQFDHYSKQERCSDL

As a reminder, the LD50 is the dose at which mortality reaches 50%. A word on the IC50: it is the concentration that inhibits the measured activity by half. Take `CCN(CCCCCN1C(=O)c2ccc(NC(C)=O)cc2C1=O)Cc1ccccc1` [Compound 11-1]: the median lethal dose (LD50) in the series “LD50 value, oral, mice” was more than 300 mg/kg. In the series on mice, the Hypothermia result is recorded as “+”, the Lachrymation result is on record as “++” and the Salivation entry is recorded as “-”. Moreover, on Acetylcholinesterase, 0.32 µM corresponded to half-maximal inhibition (IC50). Moreover, in series [1] (1 mg/kg), the “Anti-amnesia (latency, percent change of the mean time of the vehicle-treated control group)” value worked out at 455%. With `CCN(CCCCCN1C(=O)c2ccc([N+](=O)[O-])cc2C1=O)Cc1ccccc1` [Compound 2-8], the LD50 in “LD50 value, oral, mice” was 300 mg/kg. Moreover, in the series with mice, the Hypothermia entry is “+”, the Lachrymation result is given as “++” and the Salivation result was “+”. Further, on Acetylcholinesterase (setting [2]), the 50% inhibitory concentration (IC50) was 0.15 µM. In series [1] (3 mg/kg), the “Anti-amnesia (latency, percent change of the mean time of the vehicle-treated control group)” value is on record as 326%. As for `CCN(CCCCCN1C(=O)c2ccc([N+](=O)[O-])cc2C1=O)Cc1ccc(C)cc1` [Compound 2-17], on Acetylcholinesterase (setting [2]), the IC50 was 0.37 µM. Still for that read-out and setting: the same measure for `CCN(CCCCCN(C(C)=O)C(=O)/C=C/c1cccc(NC(C)=O)c1)Cc1ccccc1` [Compound 21-1]: 1.8 µM; for `CCN(CCCCCNC(=O)/C=C/c1ccc(Cl)c([N+](=O)[O-])c1)Cc1ccccc1OC` [Compound 18-1]: 0.22 µM.

Take `CCN(CCCCCN1C(=O)c2ccc(C(=O)OC)cc2C1=O)Cc1ccccc1` [Compound 13, Methyl 2-[5-(N-benzyl-N-ethyl)aminopentyl]-1,3(2H)-dioxo-1H-isoindole-5-carboxylate hydrochloride]: at Acetylcholinesterase (setting [2]), the IC50 came out at 0.58 µM. Same read-out and setting: the same measure for `CCN(CCCCCN1C(=O)c2ccc(OC)cc2C1=O)Cc1ccccc1` [Compound 12-6]: 0.71 µM; for `CCN(CCCCCN1C(=O)c2ccc(OS(C)(=O)=O)cc2C1=O)Cc1ccccc1` [Compound 12-12]: 0.38 µM; for `CN(CCCCNC(=O)/C=C/c1ccc([N+](=O)[O-])cc1)Cc1ccccc1` [Compound 9, (E)-N-[4-(N-Methyl-N-benzyl)aminobutyl]-3-(4-nitrophenyl)-2-propenamide]: 14 µM. Same read-out and setting: in the case of `CCN(CCCCCN1C(=O)c2ccc(C(=O)NC)cc2C1=O)Cc1ccccc1` [Compound 12-13] it was 0.38 µM; in that of `CN(CCCCNC(=O)/C=C/c1ccccc1[N+](=O)[O-])Cc1ccccc1` [Compound 14-2], 18 µM; in that of `CCN(CCCCCCN(C(C)=O)C(=O)/C=C/c1ccc([N+](=O)[O-])cc1)Cc1ccccc1` [Compound 16-3], 3 µM. On to `CCOC(=O)c1ccc2c(c1)C(=O)N(CCCCCN(CC)Cc1ccccc1)C2=O` [Compound 17, Ethyl 2-[5-(N-benzyl-N-ethyl)aminopentyl]-1,3(2H)-dioxo-1H-isoindole-5-carboxylate.hydrochloride], for which the IC50 at Acetylcholinesterase (setting [2]) is 0.68 µM. Still for that read-out and setting: in the case of `CCN(CCCCCNC(=O)/C=C/c1ccc([N+](=O)[O-])c(O)c1)Cc1ccccc1` [Compound 14-24] it was 0.17 µM. The same measure, in the same setting: in the case of `Cc1ccc(S(=O)(=O)Nc2ccc3c(c2)C(=O)N(CCCCN(C)Cc2ccccc2)C3=O)cc1` [Compound 5-2] it was 37 µM; in that of `CCN(CCCCCN1C(=O)c2ccc(Cl)cc2C1=O)Cc1ccccc1` [Compound 12-7], 1.3 µM.

With `CCN(CCCCCNC(=O)/C=C/c1cccc(OC)c1)Cc1ccccc1` [Compound 14-19], the IC50 on Acetylcholinesterase (setting [2]) came out at 9.3 µM. In “LD50 value, oral, mice”, `CNC(=O)Oc1ccc2c(c1)[C@]1(C)CCN(C)[C@@H]1N2C` [Physostigmine, physostigmine, reference compound] displayed an LD50 of 2.6 mg/kg. For the same compound, the “Anti-amnesia (latency, percent change of the mean time of the vehicle-treated control group)” value in series [1] (0.3 mg/kg) is 210%. Turning to `CCN(CCCCCN1C(=O)c2ccc([N+](=O)[O-])cc2C1=O)Cc1ccccc1[N+](=O)[O-]` [Compound 2-24], the concentration for half-maximal inhibition (IC50) on Acetylcholinesterase (setting [2]) was 0.49 µM. As to `CC(=O)N(CCCCN(C)Cc1ccccc1)C(=O)/C=C/c1ccc([N+](=O)[O-])cc1` [Compound 15, (E)-N-Acetyl-N-[4-(N-methyl-N-benzyl)aminobutyl]-3-(4-nitrophenyl)-2-propenamide hydrochloride], the IC50 at Acetylcholinesterase (setting [2]) turned out to be 19 µM. Still for that read-out and setting: in the case of `CN(CCCCN1C(=O)c2ccc(NC(=O)c3ccccc3)cc2C1=O)Cc1ccccc1` [Compound 4, 2-[4-(N-Benzyl-N-methyl)aminobutyl]-5-benzoylamino-1H-isoindole-1,3(2H)-dione] it was 11 µM; in that of `CCCCN(CCCCN1C(=O)c2ccc([N+](=O)[O-])cc2C1=O)Cc1ccccc1` [Compound 2-11], 1.9 µM. Same read-out and setting: in the case of `CCN(CCCCCN1C(=O)c2ccc([N+](=O)[O-])cc2C1=O)Cc1ccccc1OC` [Compound 2-25] it was 0.028 µM.

Regarding `CCN(CCCCCNC(=O)/C=C/c1ccc(N)cc1)Cc1ccccc1` [Compound 20-3], the IC50 on Acetylcholinesterase (setting [2]) amounted to 10 µM. Same read-out and setting: the same measure for `CCN(CCCCCNC(=O)/C=C/c1ccc(Cl)c([N+](=O)[O-])c1)Cc1ccccc1` [Compound 14-25]: 1.9 µM; for `CCN(CCCCCN1C(=O)c2ccc(C(=O)N(CC)CC)cc2C1=O)Cc1ccccc1` [Compound 12-9]: 0.98 µM; for `CCN(CCCCCN1C(=O)c2ccc(NS(=O)(=O)c3ccc(C)cc3)cc2C1=O)Cc1ccccc1` [Compound 11-4]: 2.2 µM. For the compound `CCN(CCCCCN(C(C)=O)C(=O)/C=C/c1ccc(Cl)c([N+](=O)[O-])c1)Cc1ccccc1` [Compound 16-11], the half-maximal inhibitory concentration (IC50) on Acetylcholinesterase (setting [2]) worked out at 0.41 µM. The same measure, in the same setting: in the case of `CCN(CCCCCNC(=O)/C=C/c1ccc(OC)c(OC)c1)Cc1ccccc1` [Compound 14-11] it was 5.4 µM. `O=C1c2ccc([N+](=O)[O-])cc2C(=O)N1CCCCN(CCO)Cc1ccccc1` [Compound 2-4]: on Acetylcholinesterase (setting [2]), the 50% inhibitory concentration (IC50) stood at 1.5 µM. On the same count and under the same terms, in the case of `CCN(CCCCCN(C(C)=O)C(=O)/C=C/c1cccc([N+](=O)[O-])c1)Cc1ccccc1` [Compound 16-4] it was 0.53 µM.
